These results are taken from patent US9242996B2 (Novartis AG, priority 2013, dated 2016).

What all share (assay type): biochemical
For test [1], the target named is T1, activated ERK2 (Homo sapiens (Human), UniProt P28482). Put plainly: Activated ERK2 kinase assay, ERK2 New conditions (AlphaScreen, ERKtide phosphorylation). The following applies: 0.25 nM ERK2, 200 nM ERKtide peptide, 35 μM ATP, 30 min preincubation. A digest of the protocol: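 0.25 nM ERK2 preincubated 30 min with compound, then reacted 2–3 h at ambient temperature with 200 nM ERKtide and 35 µM ATP (final) in HEPES pH 7.5 buffer. EDTA stop; phospho-peptide detected by AlphaScreen after overnight incubation; IC50 from four-parameter fit.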
T1 sequence (P28482 whole entry): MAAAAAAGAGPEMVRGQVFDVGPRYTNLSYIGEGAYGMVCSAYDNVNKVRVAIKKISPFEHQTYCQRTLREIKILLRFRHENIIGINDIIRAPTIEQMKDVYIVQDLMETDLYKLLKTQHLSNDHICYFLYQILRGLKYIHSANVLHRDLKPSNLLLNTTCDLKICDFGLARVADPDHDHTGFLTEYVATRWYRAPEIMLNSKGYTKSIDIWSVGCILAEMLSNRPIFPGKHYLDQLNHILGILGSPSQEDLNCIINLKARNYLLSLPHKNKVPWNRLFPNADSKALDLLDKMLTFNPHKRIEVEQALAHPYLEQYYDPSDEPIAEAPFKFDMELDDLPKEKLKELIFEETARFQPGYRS

Another test concerns the target ERK2 (Homo sapiens (Human), UniProt P28482). Put plainly: ERK2 Alphascreen.
Test [2] deals with T1, activated ERK2. Put plainly: Activated ERK2 (20 pM) Kinase Assay (AlphaScreen, ERKtide phosphorylation). The following applies: 0.02 nM ERK2, 400 nM ERKtide peptide, 35 μM ATP, 30 min preincubation. A digest of the protocol:
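Activated human ERK2 (0.02 nM) preincubated 30 min with compounds, then 400 nM ERKtide and 35 μM ATP added for 4 h at ambient temperature in HEPES pH 7.5, MgCl2, DTT, Tween-20, BSA. EDTA stop; phospho-peptide read by AlphaScreen after overnight dark incubation; four-parameter IC50.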

Chain of ERK2 (P28482 whole entry, species assumed): as the sequence (P28482 whole entry) above

As to `Nc1ncc(C2CCOCC2)nc1-c1ccc(C(=O)N[C@H](CO)c2ccccc2)cc1` [Example 1, (S)-4-(3-amino-6-(tetrahydro-2H-pyran-4-yl)pyrazin-2-yl)-N-(2-hydroxy-1-phenylethyl)benzamide], the IC50 on activated ERK2 [1] was found to be 1.63 nM; against ERK2, 1.06 nM.

As for `CN(Cc1ccccc1)C(=O)c1ccc(-c2nc(C3CCOCC3)cnc2N)cc1F` [Example 52, 4-(3-amino-6-(tetrahydro-2H-pyran-4-yl)pyrazin-2-yl)-N-benzyl-2-fluoro-N-methylbenzamide], the results for the IC50 on activated ERK2 [1] and against ERK2 were 30.3 nM and 31.2 nM, respectively.

Consider `Nc1ncc(C2CCOCC2)cc1-c1ccc(C(=O)N[C@H](CO)c2ccccc2)cc1Cl` [Example 68, (S)-4-(2-amino-5-(tetrahydro-2H-pyran-4-yl)pyridin-3-yl)-3-chloro-N-(2-hydroxy-1-phenylethyl)benzamide], for which the IC50 at activated ERK2 [1] is 314 nM; on ERK2, 214 nM.

As for `Nc1ncc(C2CCOCC2)cc1-c1ccc(C(=O)NCc2cnccn2)c(F)c1` [Example 75, 4-(2-amino-5-(tetrahydro-2H-pyran-4-yl)pyridin-3-yl)-2-fluoro-N-(pyrazin-2-ylmethyl)benzamide], the IC50 stood at 1220 nM against activated ERK2 [1] and 1160 nM against ERK2.

For `Cc1cnccc1-c1cnc(N)c(-c2ccc(C(=O)N[C@H](CO)c3ccccc3)c(F)c2)c1` [Example 83, (S)-4-(6-amino-3′-methyl-3,4′-bipyridin-5-yl)-2-fluoro-N-(2-hydroxy-1-phenylethyl)benzamide], the IC50 at activated ERK2 [1] stood at 0.752 nM; at ERK2, 0.574 nM.

Turning to `Nc1ncc(C2CCOCC2)cc1-c1ccc(C(=O)NCc2ccc(Cl)cc2)cc1` [Example 88, 4-(2-amino-5-(tetrahydro-2H-pyran-4-yl)pyridin-3-yl)-N-(4-chlorobenzyl)benzamide], the IC50 was 70.5 nM on activated ERK2 [2] and 81.4 nM against ERK2.

As to `Nc1ncc(C2CCOCC2)cc1-c1ccc(C(=O)NCc2cccc(C(F)(F)F)c2)cc1` [Example 89, 4-(2-amino-5-(tetrahydro-2H-pyran-4-yl)pyridin-3-yl)-N-(3-(trifluoromethyl)benzyl)benzamide], the IC50 against activated ERK2 [2] was 20.2 nM; against ERK2, 9.8 nM.

`Nc1ncc(C2CCOCC2)cc1-c1ncc(C(=O)N[C@H](CO)c2ccccc2)cn1` [Example 90, (S)-2-(2-amino-5-(tetrahydro-2H-pyran-4-yl)pyridin-3-yl)-N-(2-hydroxy-1-phenylethyl)pyrimidine-5-carboxamide]: the figures for the IC50 on activated ERK2 [2] and against ERK2 were 33 nM and 49 nM, respectively.

Regarding `Nc1ncc(C2CCOCC2)cc1-c1ccc(C(=O)NCC2CC2)cc1` [Example 91, 4-(2-amino-5-(tetrahydro-2H-pyran-4-yl)pyridin-3-yl)-N-(cyclopropylmethyl)benzamide], the IC50 against activated ERK2 [2] was found to be 284 nM; against ERK2, 559 nM.

Regarding `CC(=O)Nc1cccc(CNC(=O)c2ccc(-c3cc(C4CCOCC4)cnc3N)cc2)c1` [Example 92, N-(3-acetamidobenzyl)-4-(2-amino-5-(tetrahydro-2H-pyran-4-yl)pyridin-3-yl)benzamide], the results for the IC50 against activated ERK2 [2] and against ERK2 were 135 nM and 267 nM, respectively.

Take `Nc1ncc(C2CCOCC2)cc1-c1ccc(C(=O)NCc2cccnc2)cc1` [Example 93, 4-(2-amino-5-(tetrahydro-2H-pyran-4-yl)pyridin-3-yl)-N-(pyridin-3-ylmethyl)benzamide]: the IC50 came to 505 nM on activated ERK2 [2] and 887 nM against ERK2.

For `Nc1ncc(C2CCOCC2)cc1-c1ccc(C(=O)N[C@H](CO)c2ccccc2)c(F)c1` [Example 94, (S)-4-(2-amino-5-(tetrahydro-2H-pyran-4-yl)pyridin-3-yl)-2-fluoro-N-(2-hydroxy-1-phenylethyl)benzamide], the values for the IC50 at activated ERK2 [2] and at ERK2 were 0.879 nM and 0.914 nM, respectively.

As to `Cc1cc(-c2nc(C3CCOCC3)cnc2N)ccc1C(=O)N[C@H](CO)c1ccccc1` [Example 95, (S)-4-(3-amino-6-(tetrahydro-2H-pyran-4-yl)pyrazin-2-yl)-N-(2-hydroxy-1-phenylethyl)-2-methylbenzamide], the values for the IC50 at activated ERK2 [2] and at ERK2 were 0.136 nM and 0.533 nM, respectively.

Take `C[C@@H]1CN(c2cnc(N)c(-c3ccc(C(=O)N[C@H](CO)c4ccccc4)cc3)c2)C[C@H](C)O1` [Example 97, 4-(2-amino-5-((2S,6R)-2,6-dimethylmorpholino)pyridin-3-yl)-N-((S)-2-hydroxy-1-phenylethyl)benzamide]: the IC50 came to 233 nM at activated ERK2 [1] and 110 nM at ERK2.

With `COC(=O)N1CCC(c2cnc(N)c(-c3ccc(C(=O)N[C@H](CO)c4ccccc4)cc3)c2)CC1` [Example 98, (S)-methyl 4-(6-amino-5-(4-((2-hydroxy-1-phenylethyl)carbamoyl)phenyl)pyridin-3-yl)piperidine-1-carboxylate], the IC50 against activated ERK2 [2] was 15.8 nM; against ERK2 it was 26.3 nM.

As for `Nc1ncc(N2CCOCC2)cc1-c1ccc(C(=O)N[C@H](CO)c2ccccc2)cc1` [Example 122, (S)-4-(2-amino-5-morpholinopyridin-3-yl)-N-(2-hydroxy-1-phenylethyl)benzamide], the IC50 against activated ERK2 [2] came to 7.38 nM; on ERK2, 11 nM.

`Cc1cnccc1-c1cnc(N)c(-c2ccc(C(=O)N[C@H](CO)c3ccccc3)c(F)c2)n1` [Example 143, (S)-4-(3-amino-6-(3-methylpyridin-4-yl)pyrazin-2-yl)-2-fluoro-N-(2-hydroxy-1-phenylethyl)benzamide]: the IC50 was 0.364 nM against activated ERK2 [2] and 0.265 nM on ERK2.

In the case of `Nc1ncc(C2CCOCC2)cc1-c1ccc(C(=O)NCc2ccnnc2)c(F)c1` [Example 318, 4-(2-amino-5-(tetrahydro-2H-pyran-4-yl)pyridin-3-yl)-2-fluoro-N-(pyridazin-4-ylmethyl) benzamide], the IC50 is 381 nM on activated ERK2 [2] and 311 nM on ERK2.

For `Nc1ncc(C2CCOCC2)nc1-c1ccc(C(=O)NCc2ccccc2)c(F)c1` [Example 324, 4-(3-amino-6-(tetrahydro-2H-pyran-4-yl)pyrazin-2-yl)-N-benzyl-2-fluorobenzamide], the IC50 came out at 6.83 nM against activated ERK2 [1] and 6.17 nM at ERK2.

Regarding `Nc1ncc(C2CCOCC2)nc1-c1ccc(C(=O)NC[C@@H](O)c2ccccc2)c(F)c1` [Example 333, (S)-4-(3-amino-6-(tetrahydro-2H-pyran-4-yl)pyrazin-2-yl)-2-fluoro-N-(2-hydroxy-2-phenylethyl) benzamide], the values for the IC50 against activated ERK2 [1] and on ERK2 were 34.6 nM and 33.8 nM, respectively.

In the case of `Cc1cccc(CNC(=O)c2ccc(-c3nc(C4CCOCC4)cnc3N)cc2F)n1` [Example 334, 4-(3-amino-6-(tetrahydro-2H-pyran-4-yl)pyrazin-2-yl)-2-fluoro-N-((6-methylpyridin-2-yl)methyl) benzamide], the figures for the IC50 at activated ERK2 [1] and against ERK2 were 25.2 nM and 19.4 nM, respectively.

Take “(S)-4-(3-amino-6- (tetrahydro-2H- pyran-4- yl)pyrazin-2-yl)-2- fluoro-N-(2- hydroxy-1- phenylethyl) benzamide [Example 325]”: the results for the IC50 at activated ERK2 [2] and at ERK2 were 0.593 nM and 0.544 nM, respectively.
